We go through 2 compounds from BindingDB's records for doi:10.1186/1471-2091-15-9 (International Centre for Genetic Engineering and …, 2014).

Each structure is given as a SMILES string. Structures can show the parent of a compound that is named as a salt.

In the experiment the target is T1, DNA helicase [35-727] (Plasmodium falciparum, UniProt Q8I3W6).
T1 construct: 35-727
T1 sequence (Q8I3W6 whole entry): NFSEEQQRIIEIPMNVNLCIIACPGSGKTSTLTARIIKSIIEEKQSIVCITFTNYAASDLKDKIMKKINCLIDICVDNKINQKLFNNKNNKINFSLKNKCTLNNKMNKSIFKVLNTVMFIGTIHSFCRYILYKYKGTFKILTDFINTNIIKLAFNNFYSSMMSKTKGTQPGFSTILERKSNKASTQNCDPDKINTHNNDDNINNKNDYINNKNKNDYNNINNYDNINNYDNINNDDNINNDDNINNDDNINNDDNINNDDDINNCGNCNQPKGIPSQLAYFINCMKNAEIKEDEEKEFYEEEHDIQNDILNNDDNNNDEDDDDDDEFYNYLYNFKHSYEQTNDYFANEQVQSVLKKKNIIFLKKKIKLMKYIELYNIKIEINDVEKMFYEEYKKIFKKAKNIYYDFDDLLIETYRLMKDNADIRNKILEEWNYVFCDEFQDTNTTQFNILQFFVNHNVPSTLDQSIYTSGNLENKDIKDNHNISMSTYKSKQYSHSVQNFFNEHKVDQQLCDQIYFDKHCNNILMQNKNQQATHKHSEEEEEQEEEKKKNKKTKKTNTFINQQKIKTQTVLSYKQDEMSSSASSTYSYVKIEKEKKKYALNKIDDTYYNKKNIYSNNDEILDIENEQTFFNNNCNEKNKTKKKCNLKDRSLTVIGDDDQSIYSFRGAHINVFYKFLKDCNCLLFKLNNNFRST
The experiment in a line: DNA-Dependent ATPase Assay. As to conditions: pH 8; 37 °C. How it is done:
The hydrolysis of ATP catalyzed by PfUDN was assayed by measuring the formation of Pi from [γ-32P] ATP. The reaction mixture of 10 μl contained [γ-32P] ATP (specific activity 222 TBq. mmol^−1) and cold ATP (1 mM), ATPase buffer (20 mM Tris-HCl, pH 8.0, 8 mM DTT, 1.0 mM MgCl2, 20 mM KCl and 16 μg/ml BSA), purified PfUDN and 50 ng or 100 ng of M13 mp19 ssDNA. The reaction mixtures were incubated at 37°C for 60 min.

Regarding `COc1cccc2c1C(=O)c1c(O)c3c(c(O)c1C2=O)C[C@@](O)(C(C)=O)C[C@@H]3O[C@H]1C[C@H](N)[C@H](O)[C@H](C)O1` [(7S,9S)-9-acetyl-7-[(2R,4S,5S,6S)-4-amino-5-hydroxy-6-methyloxan-2-yl]oxy-6,9,11-trihydroxy-4-methoxy-8,10-dihydro-7H-tetracene-5,12-dione;hydrochloride], the IC50 turned out to be 4.4 µM. That is a single-digit micromolar value.

`CC[n+]1c(-c2ccccc2)c2cc(N)ccc2c2ccc(N)cc21` [AB00053825_07] had an IC50 of 3.1 µM.

Broadly, the IC50 is the concentration at which inhibition is half-maximal. High values mean weaker potency, low ones greater potency.
